How the values were obtained:
Assay in all cases: cells
Type in all cases: functional, cell-based
Conditions in all cases: Homo sapiens
[1] = system: C8166;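 further: growth inhibition of human C8166 cells measured by a cell viability assay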
Description: SANGER: Inhibition of human C8166 cell growth in a cell viability assay.

[2] = system: JAR;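 further: growth inhibition of human JAR cells determined with a cell viability assay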
Description: SANGER: Inhibition of human JAR cell growth in a cell viability assay.

[3] = system: BT-474
Description: SANGER: Inhibition of human BT-474 cell growth in a cell viability assay.

[4] = system: HOP-62;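 further: cell growth inhibition determined with a viability assay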
Description: SANGER: Inhibition of human HOP-62 cell growth in a cell viability assay.

[5] = system: KY821;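 further: growth inhibition of human KY821 cells, read out by a cell viability assay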
Description: SANGER: Inhibition of human KY821 cell growth in a cell viability assay.

[6] = system: NCI-H747;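 further: growth inhibition of human NCI-H747 cells, read out by a cell viability assay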
Description: SANGER: Inhibition of human NCI-H747 cell growth in a cell viability assay.

[7] = system: DSH1;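 further: growth inhibition of human DSH1 cells, measured with a cell viability readout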
Description: SANGER: Inhibition of human DSH1 cell growth in a cell viability assay.

[8] = system: NCI-H82;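 further: growth inhibition of NCI-H82 cells, measured with a cell viability readout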
Description: SANGER: Inhibition of human NCI-H82 cell growth in a cell viability assay.

[9] = system: TE-9;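 further: cell growth inhibition, measured with a cell viability readout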
Description: SANGER: Inhibition of human TE-9 cell growth in a cell viability assay.

[10] = system: LB373-MEL-D;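 further: growth inhibition of the cell line, read out in a cell viability assay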
Description: SANGER: Inhibition of human LB373-MEL-D cell growth in a cell viability assay.

[11] = system: LNCaP-Clone-FGC
Description: SANGER: Inhibition of human LNCaP-Clone-FGC cell growth in a cell viability assay.

[12] = system: NB13;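 further: cell viability readout measuring growth inhibition of human NB13 cells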
Description: SANGER: Inhibition of human NB13 cell growth in a cell viability assay.

[13] = system: SK-NEP-1;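 further: growth inhibition of human SK-NEP-1 cells, read out by a cell viability assay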
Description: SANGER: Inhibition of human SK-NEP-1 cell growth in a cell viability assay.

[14] = system: K5
Description: SANGER: Inhibition of human K5 cell growth in a cell viability assay.

[15] = system: 8-MG-BA;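 further: growth inhibition of 8-MG-BA cells, read out with a cell viability assay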
Description: SANGER: Inhibition of human 8-MG-BA cell growth in a cell viability assay.

[16] = system: MLMA;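 further: growth inhibition of MLMA cells (human), determined through a cell viability readout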
Description: SANGER: Inhibition of human MLMA cell growth in a cell viability assay.

[17] = system: KMOE-2;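 further: growth inhibition of human KMOE-2 cells, read out with a cell viability assay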
Description: SANGER: Inhibition of human KMOE-2 cell growth in a cell viability assay.

[18] = system: OCUB-M;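 further: growth inhibition of the cancer cell line, read out through a cell viability assay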
Description: SANGER: Inhibition of human OCUB-M cell growth in a cell viability assay.

[19] = system: MS-1;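 further: growth inhibition of MS-1 cells, read out by cell viability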
Description: SANGER: Inhibition of human MS-1 cell growth in a cell viability assay.

[20] = system: D-263MG
Description: SANGER: Inhibition of human D-263MG cell growth in a cell viability assay.

[21] = system: VA-ES-BJ;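 further: growth inhibition of the VA-ES-BJ cell line, read out by a cell viability assay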
Description: SANGER: Inhibition of human VA-ES-BJ cell growth in a cell viability assay.

[22] = system: SK-UT-1;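 further: growth inhibition of SK-UT-1 cells, measured by a cell viability assay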
Description: SANGER: Inhibition of human SK-UT-1 cell growth in a cell viability assay.

[23] = system: Becker;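 further: growth inhibition of Becker cells, read out with a cell viability assay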
Description: SANGER: Inhibition of human Becker cell growth in a cell viability assay.

[24] = system: OS-RC-2;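 further: growth inhibition of human OS-RC-2 cells, measured by a cell viability assay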
Description: SANGER: Inhibition of human OS-RC-2 cell growth in a cell viability assay.

[25] = system: MHH-NB-11;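 further: growth inhibition of human MHH-NB-11 cells, read out by a cell viability assay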
Description: SANGER: Inhibition of human MHH-NB-11 cell growth in a cell viability assay.

[26] = system: ALL-PO;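 further: growth inhibition of ALL-PO cells, read out by a cell viability assay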
Description: SANGER: Inhibition of human ALL-PO cell growth in a cell viability assay.

[27] = system: SF-539;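 further: Read-out is a cell viability assay, with IC50 reflecting inhibition of cell growth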
Description: SANGER: Inhibition of human SF539 cell growth in a cell viability assay.

[28] = system: MOLT-16;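 further: growth inhibition of human MOLT-16 cells, read out with a cell viability assay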
Description: SANGER: Inhibition of human MOLT-16 cell growth in a cell viability assay.

[29] = system: MSTO-211H
Description: SANGER: Inhibition of human MSTO-211H cell growth in a cell viability assay.

[30] = system: SCC-15;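 further: growth inhibition of SCC-15 cells, read out with a cell viability assay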
Description: SANGER: Inhibition of human SCC-15 cell growth in a cell viability assay.

[31] = system: NCI-H510A;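 further: growth inhibition of NCI-H510A cells, read out with a cell viability assay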
Description: SANGER: Inhibition of human NCI-H510A cell growth in a cell viability assay.

[32] = system: ES8;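 further: growth inhibition of human ES8 cells, read out with a cell viability assay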
Description: SANGER: Inhibition of human ES8 cell growth in a cell viability assay.

[33] = system: NCI-H1299;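 further: growth inhibition of human NCI-H1299 cells, read out by a cell viability assay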
Description: SANGER: Inhibition of human NCI-H1299 cell growth in a cell viability assay.

[34] = system: GI-ME-N;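 further: growth inhibition of human GI-ME-N cells, read out with a cell viability assay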
Description: SANGER: Inhibition of human GI-ME-N cell growth in a cell viability assay.

[35] = system: NCI-H1648;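 further: cell viability assay measuring inhibition of NCI-H1648 cell growth, from the Sanger screening data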
Description: SANGER: Inhibition of human NCI-H1648 cell growth in a cell viability assay.

[36] = system: MPP-89;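 further: growth inhibition of human MPP-89 cells, read out with a cell viability assay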
Description: SANGER: Inhibition of human MPP-89 cell growth in a cell viability assay.

[37] = system: LB771-HNC;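 further: growth inhibition of LB771-HNC human cells, read out with a cell viability assay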
Description: SANGER: Inhibition of human LB771-HNC cell growth in a cell viability assay.

[38] = system: NCI-H1650;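 further: growth inhibition of human NCI-H1650 cells measured by a cell viability assay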
Description: SANGER: Inhibition of human NCI-H1650 cell growth in a cell viability assay.

[39] = system: TE-5;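 further: inhibition of cell growth, read out by a cell viability assay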
Description: SANGER: Inhibition of human TE-5 cell growth in a cell viability assay.

[40] = system: IST-MEL1;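 further: growth inhibition of the cell line, read out with a cell viability assay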
Description: SANGER: Inhibition of human IST-MEL1 cell growth in a cell viability assay.

[41] = system: MOLT-4;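 further: growth inhibition of MOLT-4 cells, determined with a cell viability readout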
Description: SANGER: Inhibition of human MOLT-4 cell growth in a cell viability assay.

[42] = system: SNU-5;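 further: cell viability readout used to measure growth inhibition in human NCI-SNU-5 cells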
Description: SANGER: Inhibition of human NCI-SNU-5 cell growth in a cell viability assay.

[43] = system: SNU1;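 further: growth inhibition of human NCI-SNU-1 cells, measured with a cell viability assay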
Description: SANGER: Inhibition of human NCI-SNU-1 cell growth in a cell viability assay.

[44] = system: KU812 cell line;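 further: growth inhibition of KU812 cells, read out with a cell viability assay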
Description: SANGER: Inhibition of human KU812 cell growth in a cell viability assay.

[45] = system: NCI-H2126;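 further: growth inhibition of the cancer cell line, determined with a cell viability readout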
Description: SANGER: Inhibition of human NCI-H2126 cell growth in a cell viability assay.

[46] = system: NB10;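 further: growth inhibition of NB10 cells, read out by a cell viability assay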
Description: SANGER: Inhibition of human NB10 cell growth in a cell viability assay.

[47] = system: U-266
Description: SANGER: Inhibition of human U-266 cell growth in a cell viability assay.

[48] = system: no-10;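 further: growth inhibition of no-10 cells, read out with a cell viability assay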
Description: SANGER: Inhibition of human no-10 cell growth in a cell viability assay.

[49] = system: HL-60;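 further: growth inhibition of human HL-60 cells, read out with a cell viability assay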
Description: SANGER: Inhibition of human HL-60 cell growth in a cell viability assay.

[50] = system: BV-173
Description: SANGER: Inhibition of human BV-173 cell growth in a cell viability assay.

[51] = system: EW-3;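 further: cell viability assay read-out, IC50 reflects inhibition of growth of the EW-3 cells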
Description: SANGER: Inhibition of human EW-3 cell growth in a cell viability assay.

[52] = system: KINGS-1;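 further: cell viability assay measuring suppression of KINGS-1 cell growth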
Description: SANGER: Inhibition of human KINGS-1 cell growth in a cell viability assay.

[53] = system: J-RT3-T3-5;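 further: cell viability assay measuring growth inhibition of human J-RT3-T3-5 cells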
Description: SANGER: Inhibition of human J-RT3-T3-5 cell growth in a cell viability assay.

[54] = system: COLO-800;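 further: growth inhibition of COLO-800 cells, read out with a cell viability assay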
Description: SANGER: Inhibition of human COLO-800 cell growth in a cell viability assay.

[55] = system: GAK
Description: SANGER: Inhibition of human GAK cell growth in a cell viability assay.

[56] = system: GR-ST
Description: SANGER: Inhibition of human GR-ST cell growth in a cell viability assay.

[57] = system: KS-1
Description: SANGER: Inhibition of human KS-1 cell growth in a cell viability assay.

[58] = system: NCI-H1304
Description: SANGER: Inhibition of human NCI-H1304 cell growth in a cell viability assay.

[59] = system: AM-38
Description: SANGER: Inhibition of human AM-38 cell growth in a cell viability assay.

[60] = system: EM-2
Description: SANGER: Inhibition of human EM-2 cell growth in a cell viability assay.

[61] = system: HAL-01
Description: SANGER: Inhibition of human HAL-01 cell growth in a cell viability assay.

[62] = system: DMS-79
Description: SANGER: Inhibition of human DMS-79 cell growth in a cell viability assay.

[63] = system: KALS-1
Description: SANGER: Inhibition of human KALS-1 cell growth in a cell viability assay.

[64] = system: COR-L88
Description: SANGER: Inhibition of human COR-L88 cell growth in a cell viability assay.

[65] = system: A3-KAW
Description: SANGER: Inhibition of human A3-KAW cell growth in a cell viability assay.

[66] = system: HCC2218
Description: SANGER: Inhibition of human HCC2218 cell growth in a cell viability assay.

C/C=C(/C)C(=O)O[C@H]1C(C)=C2[C@H]([C@@H]1OC(=O)CCCCCCC)[C@@](C)(OC(C)=O)C[C@H](OC(=O)CCC)[C@@]1(O)[C@H]2OC(=O)[C@@]1(C)O [THAPSIGARGIN]
IC50 [1]: 188 nM
IC50 [2]: > 512 nM
IC50 [3]: 210 nM
IC50 [4]: 0.601 nM
IC50 [5]: 0.636 nM
IC50 [6]: 100 nM
IC50 [7]: 13.9 nM
IC50 [8]: 31.1 nM
IC50 [9]: 13.3 nM
IC50 [10]: 29.1 nM
IC50 [11]: 32.2 nM
IC50 [12]: 9.45 nM
IC50 [13]: 15.9 nM
IC50 [14]: > 512 nM
IC50 [15]: 1.99 nM
IC50 [16]: 57.5 nM
IC50 [17]: 82.9 nM
IC50 [18]: 0.597 nM
IC50 [19]: 29.5 nM
IC50 [20]: 37.2 nM
IC50 [21]: 18.2 nM
IC50 [22]: 23.3 nM
IC50 [23]: 135 nM
IC50 [24]: 24.3 nM
IC50 [25]: 45.1 nM
IC50 [26]: 16.3 nM
IC50 [27]: 1.94 nM
IC50 [28]: 4.52 nM
IC50 [29]: 293 nM
IC50 [30]: 1.12 nM
IC50 [31]: 36.1 nM
IC50 [32]: 18.1 nM
IC50 [33]: 0.879 nM
IC50 [34]: 18.2 nM
IC50 [35]: 1.44 nM
IC50 [36]: 20 nM
IC50 [37]: 64.1 nM
IC50 [38]: 147 nM
IC50 [39]: > 512 nM
IC50 [40]: 0.788 nM
IC50 [41]: 39.5 nM
IC50 [42]: 91.4 nM
IC50 [43]: 13.6 nM
IC50 [44]: 2.12 nM
IC50 [45]: 79.3 nM
IC50 [46]: 63.2 nM
IC50 [47]: 2.91 nM
IC50 [48]: > 512 nM
IC50 [49]: > 512 nM
IC50 [50]: 2.81 nM
IC50 [51]: 118 nM
IC50 [52]: 7.59 nM
IC50 [53]: 141 nM
IC50 [54]: 51.3 nM
IC50 [55]: 199 nM
IC50 [56]: 10.5 nM
IC50 [57]: 3.61 nM
IC50 [58]: 59.1 nM
IC50 [59]: 14.8 nM
IC50 [60]: 55.4 nM
IC50 [61]: 301 nM
IC50 [62]: > 512 nM
IC50 [63]: 0.516 nM
IC50 [64]: 266 nM
IC50 [65]: 1.98 nM
IC50 [66]: 58.9 nM

C[C@]12O[C@H](C[C@]1(O)CO)n1c3ccccc3c3c4c(c5c6ccccc6n2c5c31)CNC4=O [LESTAURTINIB]
IC50 [1]: > 2000 nM
IC50 [2]: 9.94 nM
IC50 [3]: > 2000 nM
IC50 [4]: > 2000 nM
IC50 [5]: 159 nM
IC50 [6]: 1050 nM
IC50 [7]: 992 nM
IC50 [8]: > 2000 nM
IC50 [9]: 415 nM
IC50 [10]: > 2000 nM
IC50 [11]: 353 nM
IC50 [12]: 469 nM
IC50 [13]: 112 nM
IC50 [14]: 145 nM
IC50 [15]: 124 nM
IC50 [16]: 146 nM
IC50 [17]: 617 nM
IC50 [18]: > 2000 nM
IC50 [19]: > 2000 nM
IC50 [20]: 971 nM
IC50 [21]: 389 nM
IC50 [22]: 354 nM
IC50 [23]: 724 nM
IC50 [24]: 566 nM
IC50 [25]: 1110 nM
IC50 [26]: 172 nM
IC50 [27]: 175 nM
IC50 [28]: 89.8 nM
IC50 [29]: 439 nM
IC50 [30]: > 2000 nM
IC50 [31]: 513 nM
IC50 [32]: 132 nM
IC50 [33]: 925 nM
IC50 [34]: 174 nM
IC50 [35]: > 2000 nM
IC50 [36]: 1040 nM
IC50 [37]: > 2000 nM
IC50 [38]: > 2000 nM
IC50 [39]: > 2000 nM
IC50 [40]: 196 nM
IC50 [41]: 70.2 nM
IC50 [42]: > 2000 nM
IC50 [43]: 183 nM
IC50 [44]: 1010 nM
IC50 [45]: > 2000 nM
IC50 [46]: 338 nM
IC50 [47]: 145 nM
IC50 [48]: > 2000 nM
IC50 [49]: 149 nM
IC50 [50]: 369 nM
IC50 [51]: 125 nM
IC50 [52]: 547 nM
IC50 [53]: 365 nM
IC50 [54]: 190 nM
IC50 [56]: 494 nM
IC50 [57]: 375 nM
IC50 [58]: > 2000 nM
IC50 [59]: > 2000 nM
IC50 [60]: 450 nM
IC50 [61]: 306 nM
IC50 [62]: > 2000 nM
IC50 [63]: 689 nM
IC50 [64]: > 2000 nM
IC50 [65]: 23.9 nM
IC50 [66]: > 2000 nM

— ChEMBL document CHEMBL1201861, “Genomics of Drug Sensitity in Cancer screening data, Wellcome Trust Sanger Institute”
